Here are results for two compounds from US10508113B2, “Inhibitors of tyrosine kinase 2 mediated signaling” (AbbVie Inc., priority 2018, dated 2019).

In general, EC50 refers to the concentration giving half of the maximal effect.

SMILES strings stand for the structures.

The experiment concerns the target T1, Jak2 (Homo sapiens, UniProt O60674).
T1 construct: Cell Type: UT7 cells engineered to express the erythropoietin (EPO) receptor; endogenous in cells; host or cells: UT7 cells engineered to express the EPO receptor
Kind of experiment: Jak2 (PSTATS UT7) alpha screen assay: inhibition of EPO induced phosphorylation of STAT5 in UT7 cells. The experiment is classed as cell-based. The following applies: for EC50: EPO induced pSTAT5, UT7 cells; for Tyk2 selectivity over Jak2: calculated from tabulated EC50 data (Jak2 / Tyk2). Put shortly:
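EPO-receptor-expressing UT7 cells, starved overnight of EPO, preincubated 30 min at 37 °C with compound (8-point 1:3, top 25 µM final), then stimulated with 1 nM EPO for 20 min. After lysis, pSTAT5 (Tyr694/699) measured by SureFire AlphaScreen; EC50 from dose-response of percent activity.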

T1 sequence (O60674 whole entry): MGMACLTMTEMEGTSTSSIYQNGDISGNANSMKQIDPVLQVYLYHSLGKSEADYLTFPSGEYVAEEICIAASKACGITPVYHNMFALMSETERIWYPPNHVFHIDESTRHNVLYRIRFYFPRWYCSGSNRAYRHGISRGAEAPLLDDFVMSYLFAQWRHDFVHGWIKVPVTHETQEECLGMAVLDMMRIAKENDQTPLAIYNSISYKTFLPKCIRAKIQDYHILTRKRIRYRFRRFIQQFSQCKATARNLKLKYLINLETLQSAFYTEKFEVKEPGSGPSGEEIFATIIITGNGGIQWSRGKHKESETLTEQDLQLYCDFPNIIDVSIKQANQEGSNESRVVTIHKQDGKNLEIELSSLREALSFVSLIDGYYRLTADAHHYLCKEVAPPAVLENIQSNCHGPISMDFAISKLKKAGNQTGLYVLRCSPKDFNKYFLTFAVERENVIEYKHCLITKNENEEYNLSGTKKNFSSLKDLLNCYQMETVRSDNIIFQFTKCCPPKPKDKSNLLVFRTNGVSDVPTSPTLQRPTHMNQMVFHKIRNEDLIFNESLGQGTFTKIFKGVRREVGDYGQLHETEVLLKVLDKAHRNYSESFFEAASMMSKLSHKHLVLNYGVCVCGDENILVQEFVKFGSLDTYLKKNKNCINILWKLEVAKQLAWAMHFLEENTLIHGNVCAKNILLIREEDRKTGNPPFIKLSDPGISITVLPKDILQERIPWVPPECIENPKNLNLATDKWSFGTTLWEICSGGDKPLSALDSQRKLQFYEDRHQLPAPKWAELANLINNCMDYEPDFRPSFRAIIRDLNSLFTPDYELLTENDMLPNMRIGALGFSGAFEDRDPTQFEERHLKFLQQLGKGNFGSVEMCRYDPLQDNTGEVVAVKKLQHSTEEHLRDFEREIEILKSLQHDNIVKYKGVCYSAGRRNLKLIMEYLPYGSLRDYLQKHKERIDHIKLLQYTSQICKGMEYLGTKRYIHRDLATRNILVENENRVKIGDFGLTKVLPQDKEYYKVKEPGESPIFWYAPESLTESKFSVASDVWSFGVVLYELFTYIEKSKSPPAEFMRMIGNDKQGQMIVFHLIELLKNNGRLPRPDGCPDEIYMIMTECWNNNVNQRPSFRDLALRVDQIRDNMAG

`COCc1cc(-c2cn(C)c3cnc(NC(C)=O)cc23)nc([C@]2([C@@H](C)O)CCOC2)c1` [Example 22.4, N-(3-(6-((R)-3-((R)-1-hydroxyethyl)tetrahydrofuran-3-yl)-4-(methoxymethyl)pyridin-2-yl)-1-methyl-1H-pyrrolo[2,3-c]pyridin-5-yl)acetamide]: the concentration giving a half-maximal response (EC50) was more than 25 µM and the “Tyk2 selectivity over Jak2” value is listed as >223-fold.

`COCc1cc(-c2cn(C)c3cnc(NC(C)=O)cc23)nc([C@]2([C@H](C)O)CCOC2)c1` [Example 22.3, N-(3-(6-((R)-3-((S)-1-hydroxyethyl)tetrahydrofuran-3-yl)-4-(methoxymethyl)pyridin-2-yl)-1-methyl-1H-pyrrolo[2,3-c]pyridin-5-yl)acetamide]: the EC50 is more than 25 µM and the “Tyk2 selectivity over Jak2” value is >170-fold.
